According to the CheMixHub viscosity set:
± gives the uncertainty stated by the source.

Test: xn = mol fraction of the nth substance listed
Conditions: 101 kPa

CC(O)CCO (stereo not given) + NCCN
viscosity [mPa·s]
Conditions | 298.15 K | 303.15 K | 308.15 K | 313.15 K | 318.15 K
x1 = 0.0339 | 1.64 ± 0.04 | 1.4 ± 0.03 | 1.3 ± 0.03 | 1.21 ± 0.03 | 1.04 ± 0.02
x1 = 0.069 | 1.98 ± 0.04 | 1.66 ± 0.04 | 1.56 ± 0.03 | 1.42 ± 0.03 | 1.23 ± 0.03
x1 = 0.1053 | 2.43 ± 0.05 | 2.01 ± 0.04 | 1.82 ± 0.04 | 1.7 ± 0.04 | 1.42 ± 0.03
x1 = 0.1429 | 3.03 ± 0.06 | 2.47 ± 0.05 | 2.24 ± 0.05 | 2.05 ± 0.04 | 1.71 ± 0.04
x1 = 0.1819 | 3.82 ± 0.08 | 3.07 ± 0.07 | 2.73 ± 0.06 | 2.54 ± 0.05 | 2.05 ± 0.04
x1 = 0.2223 | 4.9 ± 0.1 | 3.88 ± 0.08 | 3.4 ± 0.07 | 3.08 ± 0.07 | 2.49 ± 0.05
x1 = 0.2642 | 6.37 ± 0.14 | 4.97 ± 0.11 | 4.3 ± 0.09 | 3.85 ± 0.08 | 3.09 ± 0.07
x1 = 0.3078 | 8.35 ± 0.18 | 6.46 ± 0.14 | 5.45 ± 0.12 | 4.85 ± 0.1 | 3.81 ± 0.08
x1 = 0.353 | 11.2 ± 0.2 | 8.5 ± 0.18 | 7.1 ± 0.15 | 6.21 ± 0.13 | 4.83 ± 0.1
x1 = 0.4001 | 15.1 ± 0.3 | 11.2 ± 0.2 | 9.15 ± 0.19 | 7.91 ± 0.17 | 6.04 ± 0.13
x1 = 0.4491 | 20.4 ± 0.4 | 14.9 ± 0.3 | 12 ± 0.3 | 10.2 ± 0.2 | 7.56 ± 0.16
x1 = 0.5001 | 27.3 ± 0.6 | 19.6 ± 0.4 | 15.4 ± 0.3 | 13.1 ± 0.3 | 9.61 ± 0.2
x1 = 0.5533 | 36 ± 0.8 | 25.4 ± 0.5 | 19.7 ± 0.4 | 16.4 ± 0.3 | 12 ± 0.3
x1 = 0.6088 | 46.1 ± 1 | 32.1 ± 0.7 | 24.8 ± 0.5 | 20.4 ± 0.4 | 14.8 ± 0.3
x1 = 0.6667 | 56.3 ± 1.2 | 39.4 ± 0.8 | 29.9 ± 0.6 | 24.5 ± 0.5 | 18.2 ± 0.4
x1 = 0.7273 | 66.7 ± 1.4 | 47.4 ± 1 | 35.9 ± 0.8 | 28.7 ± 0.6 | 21.5 ± 0.5
x1 = 0.7908 | 77.5 ± 1.7 | 56 ± 1.2 | 41.7 ± 0.9 | 32.4 ± 0.7 | 24.4 ± 0.5
x1 = 0.8572 | 85.7 ± 1.9 | 62 ± 1.3 | 46.2 ± 1 | 35.8 ± 0.8 | 26.9 ± 0.6
x1 = 0.9269 | 91.6 ± 2.1 | 66.1 ± 1.4 | 49.3 ± 1 | 38.2 ± 0.8 | 28.6 ± 0.6
